Test results reported in patent publication US10875829B1, “Azetidine derivatives useful as modulators of cortical catecholaminergic neurotransmission” (Integrative Research Laboratories Sweden AB, priority 2016, dated 2020).
Where a name gives a salt, the structure may show the parent alone. Marks after values point to notes of the source that are not given here.

Key:
[1] = test system: non-pre-treated Sprague-Dawley rats; test: Locomotor activity in drug-naïve rats (behavioural activity, distance traveled 0-60 min); format: in vivo; conditions: for locomotor activity: recorded for 60 minutes, control saline, n=5
Method: The effect of compounds in the present disclosure on locomotor activity in drug-naïve rats was also investigated. The animals were placed in the motility meters immediately after drug administration and locomotor activity was recorded for 60 minutes (counts/60 min±SEM). The results are presented as percent of control.
Behavioural activity was measured using eight Digiscan activity monitors (RXYZM (16) TAO, Omnitech Electronics, Columbus, Ohio, USA), connected to an Omnitech Digiscan analyzer and an Apple Macintosh computer equipped with a digital interface board (NB D10-24, National Instruments, USA). Each activity monitor consisted of a quadratic metal frame (W×L=40 cm×40 cm) equipped with photo beam sensors. During measurements of behavioural activity, a rat was put in a transparent acrylic cage (W×L×H, 40×40×30 cm) which in turn was placed in the activity monitor. Each activity monitor was equipped with three rows of infrared photo beam sensors, each row consisting of 16 sensors. Two rows were placed along the front and the side of the floor of the cage, at a 90° angle, and the third row was placed 10 cm above the floor to measure vertical activity. Photo beam sensors were spaced 2.5 cm apart. Each activity monitor was fitted in an identical sound and light attenuating box containing a weak house light and a fan.
The computer software was written using object oriented programming (LabVIEW™, National instruments, Austin, Tex., USA).
Behavioural data from each activity monitor, representing the position (horizontal center of gravity and vertical activity) of the animal at each time, were recorded at a sampling frequency of 25 Hz and collected using a custom written LABView™ application. The data from each recording session were stored and analyzed with respect to distance traveled. Each behavioural recording session lasted 60 min, starting approximately 5 min after the injection of test compound.
Compounds disclosed herein have been tested for effects on spontaneous locomotor activity in non-pre-treated Sprague-Dawley rats (based on accumulated distance traveled 0-60 min post dosing), and with doses up to 100 μmol/kg (s.c.).
The animals were placed in the motility meters immediately after drug administration and locomotor activity was recorded for 60 minutes (counts/60 min). Results are presented as percent of control means. Statistical significance was assessed using Student's t-test (2 tailed) vs controls. * denotes p<0.05, ** p<0.01, *** p<0.001, n=5.

DOPAC = test: In vivo neurochemistry: tissue levels of DOPAC in brain regions; parameters: species or system rats; conditions: 100 μmol/kg s.c., 65 min before sacrifice, control saline, n=5
Text: The change in turnover of dopamine in the terminal areas of the ascending dopaminergic projections of the mammalian brain can be illustrated by measuring of changes in biochemical indices in the brain e.g. changes in concentrations of dopamine metabolites such as 3,4-dihydroxyphenyl-acetic acid (DOPAC) in the striatum and frontal cortex.
The measurement of the tissue content of DOPAC is well established in the field of research since the 1960's. In short, male Sprague-Dawley rats are administered the test compound 60 minutes prior to decapitation. The brain is rapidly taken out and dissected. The striatum is rapidly frozen and subsequently quantitatively analyzed with respect to its content of DOPAC by means of HPLC and electrochemical detection. The number of animals used for each test compound/vehicle is 5/group.
After the behavioural activity sessions, the rats were decapitated and their brains rapidly taken out and put on an ice-cold petri-dish. The brains were dissected into a right and a left part of which the right part was analyzed for neurochemicals with HPLC and the left part was analyzed for gene expression. The limbic forebrain, the striatum, the frontal cortex, the hippocampus and the remaining hemispheral parts of each rat were dissected and frozen. Each brain part was subsequently analyzed with respect to its content of monoamines and their metabolites.
The monoamine transmitter substances (NA (noradrenaline), DA (dopamine), 5-HT (serotonin)) as well as one corresponding acid, (DOPAC (3,4-dihydroxyphenylacetic acid), were quantified in brain tissue homogenates by HPLC separations and electrochemical detection.
The analytical method is based on two chromatographic separations dedicated for amines or acids. Two chromatographic systems share a common auto injector with a 10-port valve and two sample loops for simultaneous injection on the two systems. Both systems are equipped with a reverse phase column (Luna C18 (2), dp 3 μm, 50*2 mm i.d., Phenomenex) and electrochemical detection is accomplished at two potentials on glassy carbon electrodes (MF-1000, Bioanalytical Systems, Inc.). The column effluent is passed via a T-connection to the detection cell or to a waste outlet. This is accomplished by two solenoid valves, which block either the waste or detector outlet. By preventing the chromatographic front from reaching the detector, better detection conditions are achieved. The aqueous mobile phase (0.4 ml/min) for the acid system contains citric acid 14 mM, sodium citrate 10 mM, Methanol 15% (v/v) and EDTA 0.1 mM. Detection potentials relative to Ag/AgCl reference are 0.45 and 0.60V. […] Detection potentials relative to Ag/AgCl reference are 0.45 and 0.65V.
Each compound or saline solution (control) indicated in the above table was administered subcutaneously (s.c.) 65 min before sacrificing the animals. DOPAC results are presented as percent of control means±SEM (standard error of the mean). Statistical significance was assessed using Student's t-test (2 tailed) vs controls. * denotes p<0.05, ** p<0.01, *** p<0.001, n=5.

[2] = molecular target: Human 5-HT Transporter (SERT (h)) (Homo sapiens (Human), UniProt P31645); test: Radioligand binding assay, human 5-HT transporter ([3H]imipramine); conditions: for inhibition at 10 µM: 1 h, single concentration 1.0 E-5 M, duplicate, mean values; for IC50: dose-response curves
Method: (The measurement was performed as described in Tatsumi, M., Jansen, K., Blakely, R. D. and Richelson, E. (1999), Pharmacological profile of neuroleptics at human monoamine transporters, Eur. J. Pharmacol.
Cell membrane homogenates (12 μg protein) are incubated for 60 min at 22° C. with 2 nM [3H]imipramine in the absence or presence of the test compound in a buffer containing 50 mM Tris-HCl (pH 7.4), 120 mM NaCl, 5 mM KCl and 0.1% BSA.
Nonspecific binding is determined in the presence of 10 μM imipramine.
Following incubation, the samples are filtered rapidly under vacuum through glass fiber filters (GF/B, Packard) presoaked with 0.3% PEI and rinsed several times with an ice-cold buffer containing 50 mM Tris-HCl and 150 mM NaCl using a 96-sample cell harvester (Unifilter, Packard). The filters are dried then counted for radioactivity in a scintillation counter (Topcount, Packard) using a scintillation cocktail (Microscint 0, Packard).
The results are expressed as a percent inhibition of the control radioligand specific binding
[…] Reported values are mean values.

[3] = at the highest tested dose (100 μmol/kg s.c.)

Human 5-HT Transporter (SERT (h)), sequence (P31645 whole entry): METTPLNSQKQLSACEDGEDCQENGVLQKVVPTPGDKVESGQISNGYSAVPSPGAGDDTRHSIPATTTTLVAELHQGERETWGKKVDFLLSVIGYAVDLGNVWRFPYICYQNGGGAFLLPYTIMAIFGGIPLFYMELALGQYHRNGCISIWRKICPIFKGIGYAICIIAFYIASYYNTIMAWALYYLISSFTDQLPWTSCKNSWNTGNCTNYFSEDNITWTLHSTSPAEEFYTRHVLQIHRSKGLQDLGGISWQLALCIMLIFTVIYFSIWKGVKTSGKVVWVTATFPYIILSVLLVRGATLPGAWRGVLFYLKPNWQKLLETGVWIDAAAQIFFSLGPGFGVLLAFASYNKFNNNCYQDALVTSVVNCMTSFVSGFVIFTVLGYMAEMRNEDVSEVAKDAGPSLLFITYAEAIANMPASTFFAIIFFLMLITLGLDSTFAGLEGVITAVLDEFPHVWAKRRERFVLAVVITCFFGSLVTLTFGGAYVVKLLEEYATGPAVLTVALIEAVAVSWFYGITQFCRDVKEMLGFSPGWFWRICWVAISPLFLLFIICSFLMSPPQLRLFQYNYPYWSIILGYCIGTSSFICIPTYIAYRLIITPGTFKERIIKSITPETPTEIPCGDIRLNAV

inhibition at 10 µM [2]	IC50 [2]	fold more potent than Example 1A at SERT ([2]; ratio of IC50 values of Table 6)	SMILES	locomotor activity ([1]; 11 μmol/kg s.c.)	locomotor activity ([1]; 33 μmol/kg s.c.)	locomotor activity ([1]; 100 μmol/kg s.c.)	effect on locomotor activity (in words) [1, 3]	DOPAC cortex ± SEM (DOPAC)	DOPAC striatum ± SEM (DOPAC)	effect on locomotor activity (in words) ([1]; at the two highest doses (33, 100 μmol/kg s.c.))	effect on locomotor activity (in words) ([1]; at all tested doses (11, 33, 100 μmol/kg s.c.))
1.5%			CCN1CC(Oc2c(F)c(F)cc(F)c2F)C1 [Example 39, 1-ethyl-3-(2,3,5,6-tetrafluorophenoxy)azetidine hydrochloric acid salt]	132 ± 14 % of control means	103 ± 18 % of control means	78 ± 19 % of control means	significant reduction	191 ± 18** % of control means	247 ± 13*** % of control means		
11%			Fc1cc(F)c(F)c(OC2CNC2)c1F [Example 3, 3-(2,3,5,6-tetrafluorophenoxy)-azetidine hydrochloric acid salt]	114 ± 18 % of control means	71 ± 26 % of control means	44 ± 8* % of control means		201 ± 11*** % of control means	158 ± 3.4*** % of control means	significant reduction	
59%	34 µM		Fc1cccc(OC2CNC2)c1F [Example 1A, 3-(2,3-difluorophenoxy)azetidine hydrochloric acid salt]	135 ± 17 % of control means	163 ± 17* % of control means	121 ± 23 % of control means		300 ± 26*** % of control means	53 ± 2*** % of control means		
12%			Fc1cc(F)c(F)c(OC2CNC2)c1 [Example 2, 3-(2,3,5-trifluorophenoxy)azetidine hydrochloric acid salt]	66 ± 8** % of control means	57 ± 5*** % of control means	21 ± 5*** % of control means		121 ± 5.6 % of control means	96 ± 4 % of control means		significant reduction
			Fc1cc(F)cc(OC2CNC2)c1.O=C(O)C(O)C(O)C(=O)O [Example 52B, 3-(3,5-difluorophenoxy)azetidine (+)-tartaric acid salt]	93 ± 15 % of control means	30 ± 5* % of control means	46 ± 8 % of control means		229 ± 4.6*** % of control means	72 ± 1.7*** % of control means		
29%			Fc1cc(F)cc(OC2CNC2)c1 [Example 52C, 3-(3,5-difluorophenoxy)azetidine hydrochloric acid salt]	128 ± 25 % of control means	74 ± 24 % of control means	73 ± 15 % of control means					
6%			Fc1ccc(F)c(OC2CNC2)c1F [Example 20, 3-(2,3,6-trifluorophenoxy)azetidine hydrochloric acid salt]								
92%	1.3 µM	26 fold	Clc1ccc(OC2CNC2)cc1Cl [Reference Compound, 3-(3,4-dichlorophenoxy)azetidine hydrochloric acid salt, reference compound]	132 ± 10 % of control means	108 ± 23 % of control means	323 ± 50** % of control means	significant increase	86 ± 5.6 % of control means	89 ± 2.5 % of control means		
